{"source": "ChEMBL document CHEMBL5042480", "about": "“3CL Protease Inhibitors with an Electrophilic Arylketone Moiety as Anti-SARS-CoV-2 Agents” (J Med Chem, 2022)", "test": "Inhibition of recombinant C-terminal His-tagged SARS coronavirus 1 3CL protease using Boc-Abu-Tle-Leu-Gln-AMC as substrate incubated for 5 mins by Cheng-Prusoff equation analysis", "set-up": "species or system Severe acute respiratory syndrome-related coronavirus", "note": "Where a SMILES comes first, the peptide text is derived from it. The star is where a group is joined. Cbz = O=C(OCc1ccccc1)*; CF3 = FC(F)(F)*", "data": [{"compound": "CC(C)C[C@H](NC(=O)[C@@H](NC(=O)[C@H](C)NC(=O)OCc1ccccc1)C(C)C)C(=O)N[C@@H](CCC(N)=O)C(=O)C(F)(F)F", "note": "(Cbz-AVLQ-CF3)", "values": [{"measurement": "Ki", "result": 135, "unit": "µM"}]}]}
